Each structure is given as a SMILES string. Calls of active or inactive are those of the source. The calls are words filed in the database; no cut-off is given here.

Holding throughout (format): cell-based
Common to all, as to settings: HEK-293T

For assay [1], the target named is T1, Nucleotide-binding oligomerization domain-containing protein 1 (Homo sapiens) (UniProt Q9Y239).
T1 sequence (whole entry): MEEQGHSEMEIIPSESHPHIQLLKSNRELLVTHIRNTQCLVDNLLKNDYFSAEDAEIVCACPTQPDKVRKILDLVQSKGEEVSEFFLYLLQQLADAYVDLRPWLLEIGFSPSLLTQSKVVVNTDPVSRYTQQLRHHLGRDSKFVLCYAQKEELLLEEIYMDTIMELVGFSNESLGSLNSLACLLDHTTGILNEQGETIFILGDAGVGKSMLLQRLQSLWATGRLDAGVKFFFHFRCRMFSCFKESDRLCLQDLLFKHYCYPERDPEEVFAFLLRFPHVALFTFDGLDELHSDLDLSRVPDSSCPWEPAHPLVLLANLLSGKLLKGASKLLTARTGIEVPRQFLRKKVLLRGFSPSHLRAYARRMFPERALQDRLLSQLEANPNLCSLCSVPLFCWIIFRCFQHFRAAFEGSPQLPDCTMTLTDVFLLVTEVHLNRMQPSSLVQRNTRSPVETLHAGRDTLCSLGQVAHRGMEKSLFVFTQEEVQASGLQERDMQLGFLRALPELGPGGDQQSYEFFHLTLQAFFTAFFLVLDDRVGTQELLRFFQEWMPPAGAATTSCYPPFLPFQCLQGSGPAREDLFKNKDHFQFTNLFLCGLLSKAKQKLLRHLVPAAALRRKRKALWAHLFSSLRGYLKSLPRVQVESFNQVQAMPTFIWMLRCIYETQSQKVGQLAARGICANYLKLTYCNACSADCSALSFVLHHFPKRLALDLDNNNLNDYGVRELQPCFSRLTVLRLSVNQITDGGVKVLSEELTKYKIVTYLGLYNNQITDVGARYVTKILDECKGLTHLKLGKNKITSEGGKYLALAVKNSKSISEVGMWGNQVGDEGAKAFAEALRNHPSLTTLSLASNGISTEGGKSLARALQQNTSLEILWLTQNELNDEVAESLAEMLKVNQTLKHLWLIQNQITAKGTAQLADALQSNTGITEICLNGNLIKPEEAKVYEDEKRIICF
Briefly: Induction of human NOD1 activity expressed in HEK293T cells assessed as NFKB activation at 0.1 to 1000 ng/ml by luciferase reporter assay. (Reporter assays use an easily measured gene product as a stand-in for the process of interest.)

Assay [2] concerns the target T1, Nucleotide-binding oligomerization domain-containing protein 1 (Homo sapiens). As to the kind of experiment: Induction of human NOD1 activity expressed in HEK293T cells assessed as NFKB activation at 5 mM.
Assay [3] shares this target. As to the kind of experiment: Induction of human NOD1 activity expressed in HEK293T cells assessed as NFKB activation at 1 to 100 ng/ml by luciferase reporter assay.

Consider `CC(=O)N[C@@H]1[C@@H](OC(C)C(=O)N[C@@H](C)C(=O)N[C@H](CCC(=O)N[C@@H](CCC[C@@H](N)C(=O)O)C(=O)O)C(=O)O)[C@H](O)[C@@H](CO)O[C@H]1O` (stereo partly specified), for which the result in assay [1] and in assay [2] was Active.
Turning to `C[C@H](N)C(=O)N[C@H](CCC(=O)N[C@@H](CCC[C@@H](N)C(=O)O)C(=O)O)C(=O)O`, in assay [3], the result was Active.
On the same count and under the same terms, then `CC(=O)N[C@H]1[C@H](O[C@H]2[C@H](OC(C)C(=O)N[C@@H](C)C(=O)N[C@H](CCC(=O)N[C@@H](CCC[C@@H](N)C(=O)O)C(=O)O)C(=O)O)[C@@H](NC(C)=O)[C@@H]3OC[C@H]2O3)O[C@H](CO)[C@@H](O)[C@@H]1O` (stereo partly specified), with “Active”.
Consider `N[C@H](CCC[C@H](NC(=O)CC[C@@H](N)C(=O)O)C(=O)O)C(=O)O`, for which the result in assay [3] was Active.
With `CC(=O)N[C@@H]1[C@@H](OC(C)C(=O)N[C@@H](C)C(=O)N[C@H](CCC(=O)N[C@@H](CCC[C@@H](N)C(=O)O)C(=O)O)C(=O)O)[C@H](O[C@@H]2O[C@H](CO)[C@@H](O)[C@H](O)[C@H]2NC(C)=O)[C@@H](CO)O[C@H]1O` (stereo partly specified), the result in assay [1] was Active.
